Reference: the NIST ThermoML archive (doi:10.1021/je0342320)
Numbers after ± are expanded uncertainties.

Assay: xn = mol fraction of the nth substance listed
Settings: Liquid, Vibrating tube method

CCCCCCCCCC [decane] + COC(=O)OC
mass density [kg/m3]
Settings | 100 kPa | 10000 kPa | 20000 kPa | 30000 kPa | 40000 kPa
288.15 K, x2 = 0.0676 | 741.97 ± 0.44 | 749.1 ± 0.48 | 755.73 ± 0.52 | 761.88 ± 0.57 | 767.71 ± 0.62
288.15 K, x2 = 0.2303 | 767.95 ± 0.46 | 775.45 ± 0.48 | 782.4 ± 0.52 | 788.87 ± 0.56 | 794.93 ± 0.6
288.15 K, x2 = 0.2934 | 780.23 ± 0.46 | 787.82 ± 0.49 | 794.87 ± 0.52 | 801.43 ± 0.55 | 807.54 ± 0.59
288.15 K, x2 = 0.4055 | 804.52 ± 0.48 | 812.34 ± 0.5 | 819.59 ± 0.52 | 826.32 ± 0.55 | 832.65 ± 0.58
288.15 K, x2 = 0.502 | 829.72 ± 0.49 | 837.73 ± 0.51 | 844.78 ± 0.52 | – | –
288.15 K, x2 = 0.5476 | 843.28 ± 0.5 | 851.4 ± 0.51 | – | – | –
288.15 K, x2 = 0.665 | 883.8 ± 0.52 | – | – | – | –
288.15 K, x2 = 0.7101 | 901.71 ± 0.53 | – | – | – | –
288.15 K, x2 = 0.9062 | 1004.68 ± 0.58 | 1013.19 ± 0.59 | 1021.19 ± 0.59 | 1028.63 ± 0.6 | 1035.61 ± 0.6
293.15 K, x2 = 0.0676 | 738.16 ± 0.44 | 745.45 ± 0.48 | 752.25 ± 0.52 | 758.56 ± 0.57 | 764.48 ± 0.62
293.15 K, x2 = 0.2303 | 763.84 ± 0.46 | 771.54 ± 0.48 | 778.69 ± 0.52 | 785.31 ± 0.56 | 791.49 ± 0.6
293.15 K, x2 = 0.2934 | 775.99 ± 0.46 | 783.79 ± 0.49 | 791.01 ± 0.52 | 797.71 ± 0.56 | 803.97 ± 0.59
293.15 K, x2 = 0.4055 | 799.94 ± 0.48 | 807.99 ± 0.5 | 815.46 ± 0.52 | 822.34 ± 0.55 | 828.8 ± 0.58
293.15 K, x2 = 0.502 | 824.83 ± 0.49 | 833.07 ± 0.51 | 840.72 ± 0.53 | 847.8 ± 0.55 | 854.44 ± 0.57
293.15 K, x2 = 0.5476 | 838.17 ± 0.5 | 846.56 ± 0.51 | 854.35 ± 0.53 | 861.57 ± 0.55 | 868.38 ± 0.56
293.15 K, x2 = 0.5883 | 851.08 ± 0.5 | 859.46 ± 0.52 | 867.28 ± 0.53 | 874.53 ± 0.55 | –
293.15 K, x2 = 0.665 | 878.01 ± 0.52 | 886.63 ± 0.53 | 894.64 ± 0.54 | 902.11 ± 0.55 | –
293.15 K, x2 = 0.7101 | 896.39 ± 0.53 | 905.11 ± 0.54 | 913.24 ± 0.54 | 920.82 ± 0.55 | –
293.15 K, x2 = 0.7993 | 936.74 ± 0.55 | 945.44 ± 0.55 | 953.46 ± 0.56 | – | –
293.15 K, x2 = 0.9062 | 998.35 ± 0.58 | 1007.19 ± 0.59 | 1015.43 ± 0.59 | 1023.08 ± 0.59 | 1030.28 ± 0.6
298.15 K, x2 = 0.0676 | 734.31 ± 0.44 | 741.8 ± 0.48 | 748.75 ± 0.52 | – | –
298.15 K, x2 = 0.2303 | 759.7 ± 0.46 | 767.62 ± 0.48 | 774.95 ± 0.52 | – | –
298.15 K, x2 = 0.2934 | 771.64 ± 0.46 | 779.68 ± 0.49 | 787.1 ± 0.52 | – | –
298.15 K, x2 = 0.4055 | 795.37 ± 0.48 | 803.65 ± 0.5 | 811.3 ± 0.52 | – | –
298.15 K, x2 = 0.502 | 819.95 ± 0.49 | 828.44 ± 0.5 | – | – | –
298.15 K, x2 = 0.5476 | 833.19 ± 0.5 | 841.77 ± 0.51 | – | – | –
298.15 K, x2 = 0.5883 | 845.93 ± 0.5 | 854.59 ± 0.51 | – | – | –
298.15 K, x2 = 0.665 | 872.69 ± 0.52 | 881.52 ± 0.53 | – | – | –
298.15 K, x2 = 0.7101 | 890.82 ± 0.53 | 899.75 ± 0.53 | – | – | –
298.15 K, x2 = 0.7993 | 930.88 ± 0.55 | 939.91 ± 0.55 | – | – | –
298.15 K, x2 = 0.9062 | 992.18 ± 0.58 | 1001.24 ± 0.58 | – | – | –
